Measurements reported in ChEMBL document CHEMBL3102853, “Carbonic anhydrase inhibitors. Synthesis, and molecular structure of novel series N-substituted N'-(2-arylmethylthio-4-chloro-5-methylbenzenesulfonyl)guanidines and their inhibition of human cytosolic isozymes I and II and the transmembrane tumor-associated isozymes IX and XII” (Eur J Med Chem, 2014).

Tests used:
MDA-MB-468 [1] = assay: Cytotoxicity against human MDA-MB-468 cells; format: functional
IGROV-1 = assay: Cytotoxicity against human IGROV1 cells; format: functional
T47D [2] = assay: Cytotoxicity against human T47D cells; format: functional
BT-549 = assay: Cytotoxicity against human BT549 cells; format: functional
[3] = Cytotoxicity against human Hs 578T cells; format: functional
MCF7 [4] = assay: Cytotoxicity against human MCF7 cells; format: functional
MDA-MB-231 = assay: Cytotoxicity against human MDA-MB-231 cells; format: functional
PC-3 [5] = assay: Cytotoxicity against human PC3 cells; format: functional
A498 [6] = assay: Cytotoxicity against human A498 cells; format: functional
OVCAR-8 = assay: Cytotoxicity against human OVCAR8 cells; format: functional
OVCAR-3 [7] = assay: Cytotoxicity against human OVCAR3 cells; format: functional
[8] = Cytotoxicity against human OVCAR4 cells; format: functional
UACC-62 [9] = assay: Cytotoxicity against human UACC62 cells; format: functional
[10] = Cytotoxicity against human UACC257 cells; format: functional
SK-MEL-2 [11] = assay: Cytotoxicity against human SK-MEL-2 cells; format: functional
SK-MEL-28 = assay: Cytotoxicity against human SK-MEL-28 cells; format: functional
MDA-MB-435 = assay: Cytotoxicity against human MDA-MB-435 cells; format: functional
M14 = assay: Cytotoxicity against human M14 cells; format: functional
Malme-3M = assay: Cytotoxicity against human MALME-3M cells; format: functional
LOX IMVI [12] = assay: Cytotoxicity against human LOXIMVI cells; format: functional
SNB-19 = assay: Cytotoxicity against human SNB19 cells; format: functional
SNB-75 [13] = assay: Cytotoxicity against human SNB75 cells; format: functional
SF-268 [14] = assay: Cytotoxicity against human SF268 cells; format: functional
KM12 [15] = assay: Cytotoxicity against human KM12 cells; format: functional
SF-539 = assay: Cytotoxicity against human SF539 cells; format: functional
HCT-116 = assay: Cytotoxicity against human HCT116 cells; format: functional
HCC 2998 = assay: Cytotoxicity against human HCC2998 cells; format: functional
NCI-H522 = assay: Cytotoxicity against human NCI-H522 cells; format: functional
COLO 205 = assay: Cytotoxicity against human COLO205 cells; format: functional
NCI-H460 [16] = assay: Cytotoxicity against human NCI-H460 cells; format: functional
HOP-92 [17] = assay: Cytotoxicity against human HOP92 cells; format: functional
RPMI-8226 [18] = assay: Cytotoxicity against human RPMI8226 cells; format: functional
SR [19] = assay: Cytotoxicity against human SR cells; format: functional
MOLT-4 [20] = assay: Cytotoxicity against human MOLT4 cells; format: functional
K562 = assay: Cytotoxicity against human K562 cells; format: functional
CCRF-CEM = assay: Cytotoxicity against human CCRF-CEM cells; format: functional
HL-60(TB) [21] = assay: Cytotoxicity against human HL-60(TB) cells; format: functional
[22] = Cytotoxicity against human Hs 578T cells at 10 uM; format: functional; details: read-out: GI
MDA-MB-468 [23] = assay: Cytotoxicity against human MDA-MB-468 cells at 10 uM; format: functional; details: read-out: GI
MCF7 [24] = assay: Cytotoxicity against human MCF7 cells at 10 uM; format: functional; details: read-out: GI
T47D [25] = assay: Cytotoxicity against human T47D cells at 10 uM; format: functional; details: read-out: GI
DU-145 = assay: Cytotoxicity against human DU145 cells at 10 uM; format: functional; details: read-out: GI
PC-3 [26] = assay: Cytotoxicity against human PC3 cells at 10 uM; format: functional; details: read-out: GI
A498 [27] = assay: Cytotoxicity against human A498 cells at 10 uM; format: functional; details: read-out: GI
[28] = Cytotoxicity against human NCI-ADR-RES cells at 10 uM; format: functional; details: read-out: GI
LOX IMVI [29] = assay: Cytotoxicity against human LOXIMVI cells at 10 uM; format: functional; details: read-out: GI
OVCAR-3 [30] = assay: Cytotoxicity against human OVCAR3 cells at 10 uM; format: functional; details: read-out: GI
UACC-62 [31] = assay: Cytotoxicity against human UACC62 cells at 10 uM; format: functional; details: read-out: GI
SK-MEL-2 [32] = assay: Cytotoxicity against human SK-MEL-2 cells at 10 uM; format: functional; details: read-out: GI
SF-268 [33] = assay: Cytotoxicity against human SF268 cells at 10 uM; format: functional; details: read-out: GI
SW-620 = assay: Cytotoxicity against human SW620 cells at 10 uM; format: functional; details: read-out: GI
SNB-75 [34] = assay: Cytotoxicity against human SNB75 cells at 10 uM; format: functional; details: read-out: GI
KM12 [35] = assay: Cytotoxicity against human KM12 cells at 10 uM; format: functional; details: read-out: GI
HT-29 = assay: Cytotoxicity against human HT-29 cells at 10 uM; format: functional; details: read-out: GI
HOP-92 [36] = assay: Cytotoxicity against human HOP92 cells at 10 uM; format: functional; details: read-out: GI
NCI-H460 [37] = assay: Cytotoxicity against human NCI-H460 cells at 10 uM; format: functional; details: read-out: GI
A549 = assay: Cytotoxicity against human A549 cells at 10 uM; format: functional; details: read-out: GI
SR [38] = assay: Cytotoxicity against human SR cells at 10 uM; format: functional; details: read-out: GI
MOLT-4 [39] = assay: Cytotoxicity against human MOLT4 cells at 10 uM; format: functional; details: read-out: GI
RPMI-8226 [40] = assay: Cytotoxicity against human RPMI8226 cells at 10 uM; format: functional; details: read-out: GI
HL-60(TB) [41] = assay: Cytotoxicity against human HL-60(TB) cells at 10 uM; format: functional; details: read-out: GI
Carbonic anhydrase 9 = Carbonic anhydrase 9 (Homo sapiens, UniProt Q16790)
Description: Inhibition of CA9 (unknown origin)

[42] = read-out: LC50 (the source's name)

## Cc1cc(S(=O)(=O)NC(=N)NCc2ccc(S(N)(=O)=O)cc2)c(SCc2ccc(C(F)(F)F)cc2)cc1Cl
MDA-MB-468 [1]
  GI50: 2900 nM
  TGI: 13.8 µM
MDA-MB-468 [1]; [42]
  CC50: 66.4 µM
IGROV-1
  GI50: 4.9 µM
  TGI: 17.7 µM
IGROV-1; [42]
  CC50: 64.8 µM
T47D [2]
  GI50: 4.7 µM
  TGI: 20.7 µM
T47D [2]; [42]
  CC50: 84.4 µM
BT-549
  GI50: 4.4 µM
  TGI: 12.9 µM
BT-549; [42]
  CC50: 46.9 µM
[3]
  GI50: 4.6 µM
  TGI: 24.1 µM
[3]; [42]
  CC50: > 100 µM
MCF7 [4]
  GI50: 3.3 µM
  TGI: 13.6 µM
MCF7 [4]; [42]
  CC50: 67.1 µM
MDA-MB-231
  GI50: 3.1 µM
  TGI: 8.9 µM
MDA-MB-231; [42]
  CC50: 34.5 µM
PC-3 [5]
  GI50: 3.3 µM
  TGI: 12.8 µM
PC-3 [5]; [42]
  CC50: 43.2 µM
A498 [6]
  GI50: 3.1 µM
  TGI: 17.3 µM
A498 [6]; [42]
  CC50: 46.5 µM
OVCAR-8
  GI50: 5 µM
  TGI: 21 µM
OVCAR-8; [42]
  CC50: 70.2 µM
OVCAR-3 [7]
  GI50: 4.3 µM
  TGI: 15.4 µM
OVCAR-3 [7]; [42]
  CC50: 41 µM
[8]; OVCAR-4
  GI50: 4.2 µM
  TGI: 20.3 µM
[8]; OVCAR-4, read-out: LC50 (the source's name)
  CC50: 75.9 µM
UACC-62 [9]
  GI50: 2600 nM
  TGI: 9.1 µM
UACC-62 [9]; [42]
  CC50: 32 µM
[10]; UACC-257
  GI50: 3.7 µM
  TGI: 14.7 µM
[10]; UACC-257, read-out: LC50 (the source's name)
  CC50: 39.4 µM
SK-MEL-2 [11]
  GI50: 2500 nM
  TGI: 6.2 µM
SK-MEL-2 [11]; [42]
  CC50: 22.2 µM
SK-MEL-28
  GI50: 3.6 µM
  TGI: 14 µM
SK-MEL-28; [42]
  CC50: 44.3 µM
MDA-MB-435
  GI50: 3.8 µM
  TGI: 12.5 µM
MDA-MB-435; [42]
  CC50: 41.9 µM
M14
  GI50: 4.5 µM
  TGI: 16.8 µM
M14; [42]
  CC50: 49.6 µM
Malme-3M
  GI50: 3.8 µM
  TGI: 16.3 µM
Malme-3M; [42]
  CC50: 49.5 µM
LOX IMVI [12]
  GI50: 6.1 µM
  TGI: 20.5 µM
LOX IMVI [12]; [42]
  CC50: 54.3 µM
SNB-19
  GI50: 5 µM
  TGI: 19.3 µM
SNB-19; [42]
  CC50: 54.4 µM
SNB-75 [13]
  GI50: 3000 nM
  TGI: 15.9 µM
SNB-75 [13]; [42]
  CC50: 56.4 µM
SF-268 [14]
  GI50: 4.8 µM
  TGI: 18.5 µM
SF-268 [14]; [42]
  CC50: 55.8 µM
KM12 [15]
  GI50: 3.1 µM
  TGI: 10.1 µM
KM12 [15]; [42]
  CC50: 41.7 µM
SF-539
  GI50: 5.2 µM
  TGI: 17.9 µM
SF-539; [42]
  CC50: 44.8 µM
HCT-116
  GI50: 4.1 µM
  TGI: 15.9 µM
HCT-116; [42]
  CC50: 46.6 µM
HCC 2998
  GI50: 3.1 µM
  TGI: 10.4 µM
HCC 2998; [42]
  CC50: 41.7 µM
NCI-H522
  GI50: 4.6 µM
  TGI: 16.8 µM
NCI-H522; [42]
  CC50: 42.3 µM
COLO 205
  GI50: 3.5 µM
  TGI: 11.4 µM
COLO 205; [42]
  CC50: 58.1 µM
NCI-H460 [16]
  GI50: 3.8 µM
  TGI: 15.7 µM
NCI-H460 [16]; [42]
  CC50: 63.9 µM
HOP-92 [17]
  GI50: 2900 nM
  TGI: 8.3 µM
HOP-92 [17]; [42]
  CC50: 32.4 µM
RPMI-8226 [18]
  GI50: 2800 nM
  TGI: 9.1 µM
RPMI-8226 [18]; [42]
  CC50: 98.6 µM
SR [19]
  GI50: 2400 nM
  TGI: 6.8 µM
SR [19]; [42]
  CC50: > 100 µM
MOLT-4 [20]
  GI50: 3000 nM
  TGI: 10.5 µM
MOLT-4 [20]; [42]
  CC50: > 100 µM
K562
  GI50: 3.7 µM
  TGI: 25.3 µM
K562; [42]
  CC50: > 100 µM
CCRF-CEM
  GI50: 3.5 µM
  TGI: 13.4 µM
CCRF-CEM; [42]
  CC50: 85.3 µM
HL-60(TB) [21]
  GI50: 2400 nM
  TGI: 6.4 µM
HL-60(TB) [21]; [42]
  CC50: 54.4 µM
[22]
  inhibition of growth at 10 µM: 68%
MDA-MB-468 [23]
  inhibition of growth at 10 µM: 37%
MCF7 [24]
  inhibition of growth at 10 µM: 47%
T47D [25]
  inhibition of growth at 10 µM: 30%
DU-145
  inhibition of growth at 10 µM: 57%
PC-3 [26]
  inhibition of growth at 10 µM: 83%
A498 [27]
  inhibition of growth at 10 µM: 63%
[28]
  inhibition of growth at 10 µM: 64%
LOX IMVI [29]
  inhibition of growth at 10 µM: 67%
OVCAR-3 [30]
  inhibition of growth at 10 µM: 1%
UACC-62 [31]
  inhibition of growth at 10 µM: 59%
SK-MEL-2 [32]
  inhibition of growth at 10 µM: 94%
SF-268 [33]
  inhibition of growth at 10 µM: 69%
SW-620
  inhibition of growth at 10 µM: 68%
SNB-75 [34]
  inhibition of growth at 10 µM: 68%
KM12 [35]
  inhibition of growth at 10 µM: 89%
HT-29
  inhibition of growth at 10 µM: 79%
HOP-92 [36]
  inhibition of growth at 10 µM: 89%
NCI-H460 [37]
  inhibition of growth at 10 µM: 53%
A549
  inhibition of growth at 10 µM: 60%
SR [38]
  inhibition of growth at 10 µM: 17%
MOLT-4 [39]
  inhibition of growth at 10 µM: 48%
RPMI-8226 [40]
  inhibition of growth at 10 µM: 58%
HL-60(TB) [41]
  inhibition of growth at 10 µM: 83%

## NS(=O)(=O)c1ccc2c(c1)CCC2NC(=O)c1c(F)c(F)c(F)c(F)c1F (stereo unspecified)
Carbonic anhydrase 9
  Ki: 3.2 nM
